Reference: patent US8476317B2, “N-alkylcarbonyl-amino acid ester compounds and their use for cough and pharyngitis” (priority 2011, dated 2013)

Assays:
philtrum skin [1] = experiment: Cooling on facial (philtrum) skin, ointment; assay type: in vivo, human; details: for Philtrum Skin (min), duration of cooling: 5 mg/ml in Aquaphor ointment
From the text: A reliable place for topical application is the skin above the upper lip (above the vermilion border of the lips), on the philtrum, lateral to the philtrum until the nasolabial folds, and on the lower nostrils (subnasale). This part of the face is known to be densely innervated with cold receptors, second only to the surfaces of the eyeball and anogenitalia. At this locus, tingling, cool and cold sensations in the skin may be experienced and rated for time of onset and intensity.
The intervals for recording sensations are 5 to 10 minutes, until two successive zeroes are obtained. The results (shown in FIG. 1) are averaged values of 4 to 6 separate trials in the same individual. The data are plotted using SigmaPlot® (Systat Software, Point Richmond Calif.) and a smoothing function with a negative exponential was used for analysis and statistical fit of the results. Confirmatory trials of cooling action of the long-acting NACE compounds were obtained in 2 to 4 individuals but not quantified for some because of the large number of chemicals that were evaluated.
The onset of drug action is taken as the time to reach 2 units of coolness intensity, and offset of drug action is the time when coolness intensity drops below 2, after previously surpassing 2 units. The duration of cooling action is defined as the offset time minus the onset time. […] The quality of the sensation is noted, for example, as pure refreshing coolness, or if the sensation is accompanied by irritation (stinging or burning). The quality of the sensation is not rated for intensity.
For bioassay on the skin, approximately 30 mg was stirred and dissolved in 3 g of warm liquid Aquaphor® ointment to a yield a 40 mM (˜1% wt/vol) ointment. The exact amount was adjusted so that the molar equivalent was about 35 to 40 mM. After cooling, 40 to 70 mg of the solid ointment was placed on the tip of a plastic stick and applied to the skin above the upper lip, on the philtrum, and lateral to the philtrum, up to the nasolabial folds, of test subjects and the onset and duration of cooling sensations noted.
The intervals for recording sensations were 5 to 10 minutes, until two successive zeroes were obtained. The results (shown in FIG. 1) are averaged values of 4 to 6 separate trials in the same individual. The data are plotted using SigmaPlot® (Systat Software, Point Richmond, Calif., USA) and a smoothing function with a negative exponential was used for analysis and statistical fit of the results.
The onset of drug action was taken as the time to reach 2 units of coolness intensity, and offset of drug action was the time when coolness intensity drops below 2, after previously surpassing 2 units. The duration of cooling action was defined as the offset time minus the onset time. […] The quality of the sensation was also noted: such as pure refreshing coolness, or if the sensation was accompanied by irritation (stinging or burning). The quality of the sensation was not rated for intensity.
In the results of FIG. 1, the test compounds were singly applied to the skin above the upper lips as a ˜1% wt/vol (10 mg/ml) ointment. Subsequently, for the results shown in Table 3, the test dose on the philtrum was reduced to a 0.5% wt/vol (5 mg/ml) ointment. The reason for choosing a lower dose was to increase the number of trials per individual and to have a reduced chance of substances accumulating in the skin.

cough = assay type: in vivo, human
Experimental: In 20 trials, 10 trials per subject, two mg of 95%+ pure powder of a D-Ala ethyl compound (No. 2 in Table 1, (R)-2-[((1R,2S,5R)-2-isopropyl-5-methyl-cyclohexanecarbonyl)-amino]-propionic acid ethyl ester)) of Formula (1) was placed on the mid-portion of the tongue of these two subjects. Both subjects reported relief from the desire to cough within 1 minute after application. Sensations of robust coolness in the back of the throat was noted and lasted for about 30 minutes. Applications of similar amounts of powdered sugar were not effective. The placebo could be clearly distinguished from the active compound because of the absence of cooling sensations.
A person with a documented 31-year history of asthma attacks volunteered to test one of the compounds falling within Formula (1). They were extremely sensitive to agents such as tobacco smoke, dust, pollen, odors, down/woolen materials, house cleansing products, pets, and sudden change of air temperature, and reacted with violent coughing, mucus secretions, wheezing, choking, and shortness of breath. At the time of this trial, they were taking these medications for their condition: theophylline, Allegra®, Advair®, Intal®, and Singulair®. In 5 trials, during a coughing spree, they placed one to two mg of 95%+ pure powder of a D-Ala ethyl ester (No. 2 in Table 1, ((R)-2-[((1R,2S,5R)-2-isopropyl-5-methyl-cyclohexanecarbonyl)-amino]-propionic acid ethyl ester))) of Formula (1) on the mid-portion of their tongue. They reported a soothing and cool sensation with a slight taste similar to Eucalyptus oil in their mouth and throat. Coughing stopped after 3 to 5 minutes and breathing was normal. […] In three trials when the compound was applied at night, they slept through the night without being awakened by cough. Their spouse remarked that, in over 30 years of marriage, this was the first time that they had seen an effective medication for their cough. They noted that the irritative signals of cough were absent in the presence of the applied chemical, but they still sensed a mechanical build up of secretions in their airways and could voluntarily cough up such secretions if necessary. They continue to use the test compound for management of their asthma, with the knowledge and consent of their physician.
A person had adult-onset asthma for 20 years. Triggers for attacks were tobacco smoke, dust, and changes in air temperature. They used Foradil® (formoterol fumarate) and Asmanex® (mometasone fuorate) twice a day to control their asthma, and monitored their pulmonary function with a portable device for measuring peak expiratory flow. They had daily episodes of both productive and non-productive cough. In 5 trials, when they felt throat irritation and a desire to cough, placement of 1 to 3 mg of (R)-2-[((1R,2S,5R)-2-isopropyl-5-methyl-cyclohexanecarbonyl)-amino]-propionic acid ethyl ester) (No. 2 in Table 1) provided rapid relief and was described as soothing and removed “tightness” in the chest. Peak expiratory flow improved from 320 Umin to 370 Umin. […] The subjective response to the long-acting NACE compound was definitely favourable. The subject remarked that the best time to use the NACE compuound was after inhaling the crystalline Foradil® because this inhaled drug irritated their throat.
ODT containing 2.0 to 2.5 mg of D-Aa Me Ester, D-Ala Et Ester, or D-Ala iPr Ester (identified chemically in Table 1 as No. 1, No. 2, and No. 3, respectively) were prepared using mannitol/maltitol as the excipient and stored in tic-tac boxes each containing 10 tablets. Over a course of two years, 14 adult males with cough tested these tablets. The causes of coughing were colds/flu, allergies, pharyngitis, excessive smoking, and two cases of gastroesophageal reflux. These individuals all had advanced degrees (M.D. or Ph.D.) and were motivated to try the tablets by scientific curiosity or because of financial interests in drug development, or, in several cases, by the annoyance caused by the cough. […]

ocular surface = experiment: Eye wipe test, duration of cooling on ocular surface; assay type: in vivo, human; details: eye wipes 1 mg/ml in 5%-95% v/v ethanol-distilled water
Experimental: To further document the activities fo the test molecules, the results from an eye wipe test was included. Here the test substance is applied to the closed eyelids with a towelette at a concentration of 1 mg/ml in 5%-ethanol-95%-distilled water vol/vol and the duration of cooling on the ocular surface was recorded. […] It is likely that the mucous membranes that line the ocular surface and the pharynx have similar sensory mechanisms that are somewhat different from the philtrum skin which is keratinized.

pharyngeal surface = experiment: Chili-pepper sauce cough challenge test; assay type: in vivo, human; parameters: key: If there is no attenuation of the challenge stimuli, the score is 0; if there is partial inhibition, the score is +; if there is complete attenuation of the cough signal, the score is ++; details: challenge 45 to 50 min after ODT containing 2 mg of test substance
From the text: A number of cough challenge methods have been devised for evoking the cough reflex (Morice et al. Briti. J. Clin. Pharmacol. 52: 365-375, 2001). Usually, citric acid or capsaicin is delivered via the inhalation route to volunteers and the number of coughs counted. […] The chili pepper sauce used here is called Yank Sing® Chili Pepper Sauce (YS Gourmet Productions, Inc., PO Box 26189, San Francisco, Calif. 94126) and is a well-known condiment for use with dim sum (Chinese tea lunch). The sensations associated with the chili pepper sauce are located in the back of the mouth and are clearly recognized and associated with a desire to clear the throat. […] To test for anti-cough activity the ODT with the test substance is first administered onto the dorsal surface of the tongue and 45 to 50 min afterwards the chili-pepper sauce test is administered. If there is no attenuation of the challenge stimuli, the score is 0, if there is partial inhibition, the score is +, and if there is complete attenuation of the cough signal, the score is ++. In the presence of an ODT that results in a ++ score, the irritative signals are completely absent, yet the salty taste used in the soy sauce of the condiment can still be easily tasted. The test substances in the ODT that produced a ++ score were then identified and further tested for effectiveness in the treatment of cough.

philtrum skin [2] = details: ˜10 mg/ml on the skin; as shown in U.S. 20080227857; cited from earlier work
oral cavity / oropharynx = experiment: Cooling in oral cavity after application on dorsal surface of tongue; assay type: in vivo, human; details: 2 to 5 mg on tongue
Experimental: The subject is instructed to close and hold the substance in the mouth for at least 10 seconds and not to swallow. The description of sensations is then recorded at 5 to 10 minute intervals.
The compounds of Formula 1 are white crystalline solids at room temperatures. These compounds were tested as the pure powder (>95% purity, by HPLC analysis), or mixed 1:1 with powdered or granulated sugar. The test substances were applied at 2 to 5 mg on the mid-point of the dorsal surface of the tongue using a metal spatula or a plastic applicator. After depositing the test substance on the tongue, the subject was instructed to keep the mouth closed and allow the fluids of the mouth to inter-mix with the test substance and to distribute it to the back of the mouth (oropharynx). The presence and duration of subjective sensations from the mouth was then recorded.

Row | SMILES | Philtrum Skin (min), duration of cooling (philtrum skin [1]) [min] | skin or eye irritancy (philtrum skin [1]; in vivo) | cooling action of ODT on the pharyngeal surface (cough; Study 6, ODT) | effectiveness in reducing cough (cough; Study 6, ODT 2.0 to 2.5 mg, 14 adult males with cough) [%] | Eyelids/Ocular Surface (min), duration of cooling (ocular surface) [min] | Chili-Pepper Sauce Test (pharyngeal surface) | duration / onset of action on the skin (philtrum skin [2]) | sensory irritation in oral cavity (oral cavity / oropharynx)
1 | CC(C)OC(=O)[C@@H](C)NC(=O)[C@@H]1C[C@H](C)CC[C@H]1C(C)C [D-Ala-OiPr, (R)-2-[((1R,2S,5R)-2-isopropyl-5-methyl-cyclohexanecarbonyl)-amino]-propionic acid isopropyl ester] | 34 | without skin or eye irritancy | robust cooling action | 100 | 360 | ++ |  | 
2 | CCCCOC(=O)C(C)NC(=O)[C@@H]1C[C@H](C)CC[C@H]1C(C)C (stereo partly drawn) [D-Ala-OnBu] | 80 |  |  |  | 40 | 0 |  | 
3 | CCCOC(=O)C(C)NC(=O)[C@@H]1C[C@H](C)CC[C@H]1C(C)C (stereo partly drawn) [D-Ala-OnPr] | 108 |  |  |  | 65 | + |  | 
4 | CCCCOC(=O)CNC(=O)[C@@H]1C[C@H](C)CC[C@H]1C(C)C [Gly-OnBu] | 38 |  |  |  | 35 | 0 |  | 
5 | CCCOC(=O)CNC(=O)[C@@H]1C[C@H](C)CC[C@H]1C(C)C [Gly-OnPr] | 42 |  |  |  | 54 | 0 |  | 
6 | CCOC(=O)C(C)NC(=O)[C@@H]1C[C@H](C)CC[C@H]1C(C)C (stereo partly drawn) [L-Ala-OiPr] | 27 |  |  |  | 15 | 0 |  | 
7 | CCOC(=O)C(C)NC(=O)[C@@H]1C[C@H](C)CC[C@H]1C(C)C (stereo partly drawn) [L-Ala-OnBu] | 0 |  |  |  | 0 | 0 |  | 
8 | CCOC(=O)C(C)NC(=O)[C@@H]1C[C@H](C)CC[C@H]1C(C)C (stereo partly drawn) [L-Ala-OnPr] | 22 |  |  |  | 10 | 0 |  | 
9 | CCNC(=O)C1CC(C)CCC1C(C)C (centres unmarked) [WS-3] |  |  |  |  |  |  | short duration of action (less than 1 hour) at ˜10 mg/ml on the skin or slow onset (more than 5 minutes) | some sensory irritation
10 | COc1ccc(NC(=O)[C@@H]2C[C@H](C)CC[C@H]2C(C)C)cc1 [WS-12] |  |  |  |  |  |  | short duration of action (less than 1 hour) at ˜10 mg/ml on the skin or slow onset (more than 5 minutes) | 
11 | CNC(=O)C(C)(C(C)C)C(C)C [WS-23] |  |  |  |  |  |  | short duration of action (less than 1 hour) at ˜10 mg/ml on the skin or slow onset (more than 5 minutes) | some sensory irritation
